How the values were obtained:
human α-thrombin = target: T1, human α-thrombin (Homo sapiens, UniProt P00734); assay: In vitro inhibition of purified thrombin (hydrolysis of Bz-Phe-Val-Arg-pNa); assay type: biochemical; conditions: for thrombin inhibition, potency and selectivity in words: conclusion from Table 1 (versus factor Xa and plasmin); for IC50: purified human α-thrombin 36 nM, Bz-Phe-Val-Arg-pNa 66 μM, pH 7.5, 37° C.
T1 construct: Purified human α-thrombin; purchased Enzyme Research Laboratories, Inc
Protocol: (§1) The ability of the compounds of the present invention to act as inhibitors of thrombin, factor Xa and plasmin catalytic activity was assessed by determining the concentration which inhibited enzyme activity by 50% using purified human enzymes. The concentration of added inhibitor that caused a 50% decrease in the initial rate of hydrolysis was defined as the IC50 value.
All assays are based on the ability of the test compound to inhibit the hydrolysis of a peptide p-nitroanilide substrate. In a typical experiment, appropriate substrate is prepared in DMSO, and diluted into an assay buffer consisting of 50ram HEPES and 130 mM NaCl at a pH of 7.5. The final concentration for each of the substrates is listed below. All substrate concentrations are at least 10 fold lower than Km to insure inhibition is competitive. Test compounds are prepared as 1 mg/ml solutions in DMSO, and three additional 10-fold dilutions in DMSO are prepared. Enzyme solutions are prepared at the concentrations listed below in assay buffer.
(§2) In a typical IC50 determination, into each well of a 96 well plate is pipetted 280 uL of substrate solution, 10 μL of inhibitor solution, and the plate is allowed to thermally equilibrate at 37° C. in a Molecular Devices Plate Reader for at least 10 minutes. Reactions are initiated by the addition of a 20 μL aliquot of enzyme, and the absorbance increase at 405 nm is recorded for 15 minutes. Data corresponding to less than 10% of the total substrate hydrolysis is used in the calculations. The ratio of the velocity (rate of the change in absorbance as a function of time) for a sample containing no inhibitor is divided by the velocity of a sample containing inhibitor, and is plotted as a function of inhibitor concentration. The inverse of the slope is the concentration of inhibitor which produces a 50% decrease in activity of the enzyme. This concentration is referred to as the IC50.
Thrombin activity was assessed as the ability to hydrolyse the substrate N-benzoyl-Phe-Val-Arg-p-nitroanilide (Bz-Phe-Val-Arg-pNa), and was obtained from Sigma Chemical Company (St. Louis, Mo.). Substrate solutions were prepared at a concentration of 60 μM (60 μM<<Km =1.2 mM) in assay buffer. Final DMSO concentration was 0.3%. Purified human α-thrombin was obtained from Enzyme Research Laboratories, Inc., and was diluted into assay buffer to a concentration of 1.2 μM. Final reagent concentrations were: [thrombin]=36 nM, [Bz-Phe-Val-Arg-pNa]=66 μM, [inhibitor]=60 to 0.06 μM.

factor Xa = assay: In vitro inhibition of factor Xa (hydrolysis of Bz-Ile-Glu-Gly-Arg-pNa); assay type: biochemical, human; conditions: at 60 μM inhibitor; factor Xa 10 nM, Bz-Ile-Glu-Gly-Arg-pNa 26 μM, pH 7.5, 37° C.
Protocol: as §1
All assays are based on the ability of the test compound to inhibit the hydrolysis of a peptide p-nitroanilide substrate. In a typical experiment, appropriate substrate is prepared in DMSO, and diluted into an assay buffer consisting of 50ram HEPES and 130 mM NaCl at a pH of 7.5. The final concentration for each of the substrates is listed below. […]
as §2, with “Data corresponding to less than 10% of the total substrate hydrolysis is used in the calculations.” left out, “The inverse of the slope is the concentration of inhibitor which produces a 50% decrease in activity of the enzyme. This concentration is referred to as the IC50.” left out

IC50 (human α-thrombin)	SMILES	thrombin inhibition, potency and selectivity in words (human α-thrombin)	Factor Xa % Inhibition at 60 μM (factor Xa)
4700 nM	COc1cc(CNC(=O)[C@@H]2CCCN2C(=O)[C@H](N)Cc2ccccc2)ccc1O [Compound 7, D-phenylalanyl-N-[2-(4-hydroxy-3-methoxybenzyl)]-L-prolinamide]	highly selective and potent inhibitors of thrombin	0%
2800 nM	Nc1ccc(CNC(=O)[C@@H]2CCCN2C(=O)[C@@H](Cc2ccccc2)NC(=O)OCc2ccccc2)cc1 [Compound 12, N-CBZ-D-phenylalanyl-N-[2-(4-aminobenzyl)]-L-prolinamide]	highly selective and potent inhibitors of thrombin	
1000 nM	Nc1ccc(CNC(=O)[C@@H]2CCCN2C(=O)[C@H](N)Cc2ccccc2)cc1 [Compound 13, D-phenylalanyl-N-[2-(4-aminobenzyl)]-L-prolinamide]	highly selective and potent inhibitors of thrombin	0%

— patent US5612369A, “Thrombin inhibitors” (3-Dimensional Pharmaceuticals, Inc., priority 1995, dated 1997)
